One series deals with β-catenin. In words: Topical IWR-1 pre-treatment of adult murine skin followed by TRF. In kind it is in vivo, C57B1/6 mice. As to the method: Mice were randomly (www.random.org) divided into different groups as indicated in corresponding figure legends. The dorsal skin was shaved and hair was depilated using Nair® two days before experiments. TRF or its placebo (PBO) was applied topically at a dose of 5 mg/cm^2 skin, thrice per week. During the procedure, mice were anesthetized by low-dose isoflurane inhalation. Digital photographs were collected (Canon PowerShot S6 and Dermascope from Dino-lite ProII). In some experiments, to inhibit β-catenin expression, IWR-1 (Sigma; I0161) was used. A 10% DMSO stock IWR-1 solution was prepared and diluted with glycerol to a final concentration of 2 μg per 0.5 cm^2 of skin. This solution was applied topically on the dorsal skin of C57B1/6 mice at a dose of 12.5 μL/0.5 cm^2 for four consecutive days of IWR-1 or vehicle followed by 7 consecutive days of […] for one hour under occlusive dressing (Tegaderm™, 3M, St. Paul, Minn.).
Detection of anagen induction. Promotion of hair growth was evaluated by observing the skin color which is indicative of the telogen-to-anagen conversion.^50 Skin, collected and 8 μm formalin-fixed paraffin-embedded skin sections, were deparaffinized and stained with hematoxylin & eosin. Mosaic images at 20× were collected using Axioscanner (Zeiss Microscopy). From histological characterization of the sections, anagen follicles in dermis and subcutis layers were enumerated.
Histology, immunohistochemistry (IHC) and immunocytochemistry (ICC). Histology of skin was performed from 8 μm thick paraffin sections after staining with Hematoxylin and Eosin (H&E). Immunostaining of Ki67 (Abcam, ab15580; 1:400), LGR6 (Abcam, ab126747; 1:100), CD34 (Abcam, ab8158; 1:200), OCT4 (Abcam, ab19857; 1:200), SOX9 (Abcam, ab185230; 1:1000), KLF4 (Abcam; ab151733, 1:200), c-MYC (Abcam; ab32072, 1:200), NANOG (Abcam; ab80892, 1:200), K17 (Abcam, ab53707; 1:100), K15 (Abcam, ab52816; 1:100), Claudin (Invitrogen, RB9209P; 1:200), Occludin (Invitrogen, 711500; 1:200), ZO-1(Invitrogen, 617300; 1:200), ZO-2 (Invitrogen, 389100; 1:200), E-cadherin (Life Technologies, 131900; 1:200) and β-catenin (Abcam, ab22656; 1:200) were performed on paraffin and cryosections of skin sample using specific antibodies as indicated.^57 For immunocytochemistry, cells were fixed with cell fixation buffer (ebiosciences; 00-8222-49) and stained for respective antibodies. Specificity of the antibodies were validated using rabbit isotype control (Abcam, ab27478; 1:400), rat isotype control (Abcam, ab18412; 1:200), and mouse isotype control (Abcam, ab18443; 1:200) (FIG. 13). Briefly, OCT embedded tissue were cryosectioned (10 μm), fixed with cold acetone, blocked with 10% normal goat serum and incubated with specific antibodies overnight at 4° C. Signal was visualized by subsequent incubation with either biotinylated-tagged for DAB staining and fluorescence-tagged appropriate secondary antibodies (Alexa 488-tagged α-mouse, 1:200; Alexa 568-tagged α-mouse, 1:200; Alexa 488-tagged α-rabbit, 1:200; Alexa 568-tagged α-rabbit, 1:200; Alexa 568-tagged α-rat, 1:200).

A further series relates to β-catenin-Tcf3 complex. Put plainly: Tcf3 decoy transfection of keratinocytes with tocotrienol treatment (quantitative immunocytochemistry). Type of series: cell-based, human. Conditions: 24 h. As to the method:
(§1) Cell and cell culture. Immortalized human keratinocytes (HaCaT) were grown in Dulbecco's low-glucose modified Eagle's medium (Life Technologies) as described previously.^55 Cells were maintained in a standard culture incubator with humidified air containing 5% CO2 at 37° C.
Synthesis of Tcf3 decoy and control double-stranded oligodeoxynucleotides. Tcf3 decoy and control double-stranded oligodeoxynucleotides were prepared as described previously.^22 Briefly, FAM labelled phosphorothioate oligodeoxynucleotides were synthesized and purified by Sigma-Aldrich. The oligonucleotides sequence used were as follow: Tcf3 decoy sense, 5′-6FAM-CCGGGCTTTGATCTTTGC-3′ (SEQ ID NO:1); Tcf3 decoy anti-sense, 5′-6FAM-GCAAAGATCAAAGCCCGG-3′ (SEQ ID NO:2); Tcf3 scramble sense, 5′-6FAM-CCGGGTCAGTTCTTTTGC -3′ (SEQ ID NO:3); Tcf3 scramble anti-sense, 5′-6FAM-GCAAAAGAACTGACCCGG -3′ (SEQ ID NO:4). […]
Histology, immunohistochemistry (IHC) and immunocytochemistry (ICC). […] Signal was visualized by subsequent incubation with either biotinylated-tagged for DAB staining and fluorescence-tagged appropriate secondary antibodies (Alexa 488-tagged α-mouse, 1:200; Alexa 568-tagged α-mouse, 1:200; Alexa 488-tagged α-rabbit, 1:200; Alexa 568-tagged α-rabbit, 1:200; Alexa 568-tagged α-rat, 1:200).

The test system of series [1] is human HaCaT keratinocytes. Put plainly: E-cadherin expression and β-catenin nuclear translocation in HaCaT keratinocytes (immunocytochemistry). Type of series: cell-based. The conditions noted are these: 24 h. As to the method: as §1
Histology, immunohistochemistry (IHC) and immunocytochemistry (ICC). Histology of skin was performed from 8 μm thick paraffin sections after staining with Hematoxylin and Eosin (H&E). […] Signal was visualized by subsequent incubation with either biotinylated-tagged for DAB staining and fluorescence-tagged appropriate secondary antibodies (Alexa 488-tagged α-mouse, 1:200; Alexa 568-tagged α-mouse, 1:200; Alexa 488-tagged α-rabbit, 1:200; Alexa 568-tagged α-rabbit, 1:200; Alexa 568-tagged α-rat, 1:200).

The subject of the next series is β-catenin and Tcf3. In words: Proximity ligation assay (PLA) for β-catenin-Tcf3 in keratinocytes. In kind it is cell-based, human. The conditions noted are these: 1 μM, 24 h. As to the method:
as §1
In situ proximity ligation assay (PLA). PLA was performed as described previously using Sigma Duolink® in situ red starter kit for […] (DUO92105) following manufacturer's instructions except that the incubation time was prolonged to 90 minutes.^58 The assay was performed using rabbit Tcf3 (Abcam, ab69999; 1:50) and mouse β-catenin (Abcam, ab22656; 1:200) antibodies. Slides were imaged using Olympus FV 1000 spectral confocal microscope.

{6FAM} = 6-carboxyfluorescein label

Consider `O=C(Nc1cccc2cccnc12)c1ccc(N2C(=O)[C@@H]3[C@H](C2=O)[C@@H]2C=C[C@H]3C2)cc1` [IWR-1], for which, in the series with β-catenin, the “TRF-induced translocation of β-catenin to the nucleus” value is on record as “inhibited TRF-induced translocation of β-catenin to the nucleus” and the “lowering of E-cadherin in response to TRF” value is “did not influence”. In addition, in the series with β-catenin (TRF-treated adult skin), the “epidermal β-catenin” value was “effective in degrading epidermal β-catenin”. Moreover, the “number of anagen hair follicles induced by topical TRF” value in the series on β-catenin (day 11 (day 7 post TRF application), vs vehicle) is recorded as “significantly decreased”. For the same compound, the “TRF-stimulated keratinocyte proliferation (Ki67+ cells)” value in the series on β-catenin (vs vehicle DMSO) was “eliminating the effect of TRF on stimulating keratinocytes proliferation”.

“Tcf3 decoy: FAM labelled phosphorothioate double-stranded oligodeoxynucleotide based on Tcf3 binding consensus sequence (SEQ ID NO:1/2) (sense CCGGGCTTTGATCTTTGC; antisense GCAAAGATCAAAGCCCGG; DNA, all phosphorothioate, 5' {6FAM}, methylation of C not given here)”: the “effect on tocotrienol-induced stemness and pluripotency factors” value in the series with β-catenin-Tcf3 complex (decoy 0.1 μM vs scramble 0.1 μM, tocotrienol 1 μM) is on record as “markedly blunted”.

α-tocotrienol [pure tocotrienol]: the “membrane E-cadherin expression” value in series [1] (1 μM) is listed as “sharp decrease”. The “nuclear translocation of β-catenin” value in series [1] (pure tocotrienol 1 μM) was “nuclear translocation of β-catenin”. In addition, the “interaction of β-catenin and Tcf3 (PLA)” value in the series on β-catenin and Tcf3 is “interaction of β-catenin and Tcf3 in the nucleus”. Further, in the series with β-catenin-Tcf3 complex (pure tocotrienol 1 μM), the “stemness and pluripotency factors (SOX9, OCT4, K17, K15, KLF4, c-MYC, NANOG) in keratinocytes” value was “induction of stemness as well as pluripotency factors”.

These data come from patent US20190365705A1, “TOPICAL TOCOTRIENOL COMPOSITIONS AND METHODS OF INCREASING SKIN STEM CELLS” (OHIO STATE INNOVATION FOUNDATION, priority 2017, published 2019).
